Holding throughout (assay type): cell-based
The test system of assay [1] is C. neoformans H99. Briefly: Broth microdilution antifungal assay (MIC) in RPMI or urea medium. As to conditions: Cryptococcus neoformans. How it is done: (§1) C. neoformans H99 (or ATCC 208821), a standard strain, was used to evaluate the antifungal activity of BSU1-BSU11 and BTU1-BTU11 compounds using the broth microdilution method. The assay was performed in two different culture media: the standard medium RPMI 1640 buffered with […] (RMPI), and the Christensen broth (urea medium: 1 g/L peptone, 1 g/L dextrose, 5 g/L sodium chloride, 2 g/L potassium phosphate, 20 g/L urea, 12 mg/L phenol red, pH 7.0). The compounds were dissolved in dimethyl sulfoxide (DMSO) and diluted in both media, obtaining final concentrations from 0.03 to 128 mg/L in a 96-well plate and final DMSO concentration below 0.5%, considered nontoxic. For assay, yeasts were distributed in each well to obtain a final inoculum of 0.5–2.5 × 10^3 CFU/mL, and the plate was incubated at 35 °C for 48 h.
(§2) The MIC values were determined in both media and were defined as the lowest concentrations of BSU1-BSU11 and BTU1-BTU11 that inhibited 50% of fungal growth visually compared with untreated yeasts (growth control). In addition, the urease activity was indicated by medium color change from orange to pink due to ammonia production and the MICure was defined as the lowest concentration that inhibited the urease activity by visual inspection in urea medium with no color changes. For both assays, two controls were included: untreated yeast group for observation of fungal growth pattern or intracellular urease activity, and wells containing only medium for assay sterility control.

The target of assay [2] is T1, yeast urease activity (Cryptococcus neoformans, UniProt O13465).
T1 construct: endogenous in cells; host or cells: Cryptococcus neoformans H99 (ATCC 208821) yeasts in Christensen urea broth
Briefly: Inhibition of yeast urease activity in urea (Christensen) medium, colour change (MICure). Here is the method: The inhibitory activity against yeast urease was assessed using Christensen’s medium, which contains urea to induce URE1 gene expression. […] Even in the presence of fungal growth, inhibition of urease activity was evidenced by the absence of medium color change, indicating suppressed ammonia production.
as §1, §2

The subject of assay [3] is C. neoformans H99. The assay is described as follows: Minimum fungicidal concentration by subculturing after MIC reading. As to conditions: Cryptococcus neoformans, read-out: MFC. How it is done:
After MIC readings, the MFC values were determined by subculturing, at 35 °C for 48 h, of all concentrations that inhibited the fungal growth; and then MFC was defined as the lowest concentration of the compound capable of reducing ≥99% viability of the initial fungal inoculum. ,

Where [4] appears, read: H99, BTU series, 50% inhibition of fungal growth, RPMI medium, read-out: MIC RPMI.
Where [5] appears, read: H99, BTU series, 50% inhibition of fungal growth, urea medium, read-out: MIC urea.
The mark [6] stands for this setting: H99, Table S1, RPMI medium, C. neoformans H99, read-out: MIC.
Where [7] appears, read: H99, Table S1, urea medium, C. neoformans H99, read-out: MIC.
Setting [8] is: BTU series, 100% inhibition of yeast urease activity in urea medium.
Where [9] appears, read: Table S1, urea medium, 100% inhibition of yeast urease activity.
Setting [10] is: H99, BTU series, after assay in RPMI medium.
The mark [11] stands for this setting: H99, Table S1, RPMI medium line.
The mark [12] stands for this setting: H99, Table S1, urea medium line.

SMILES strings stand for the structures. Converted amounts (≈) assume the structure as drawn. Read-outs that look alike come from different tables or passages of the source.

T1 sequence (O13465 whole entry): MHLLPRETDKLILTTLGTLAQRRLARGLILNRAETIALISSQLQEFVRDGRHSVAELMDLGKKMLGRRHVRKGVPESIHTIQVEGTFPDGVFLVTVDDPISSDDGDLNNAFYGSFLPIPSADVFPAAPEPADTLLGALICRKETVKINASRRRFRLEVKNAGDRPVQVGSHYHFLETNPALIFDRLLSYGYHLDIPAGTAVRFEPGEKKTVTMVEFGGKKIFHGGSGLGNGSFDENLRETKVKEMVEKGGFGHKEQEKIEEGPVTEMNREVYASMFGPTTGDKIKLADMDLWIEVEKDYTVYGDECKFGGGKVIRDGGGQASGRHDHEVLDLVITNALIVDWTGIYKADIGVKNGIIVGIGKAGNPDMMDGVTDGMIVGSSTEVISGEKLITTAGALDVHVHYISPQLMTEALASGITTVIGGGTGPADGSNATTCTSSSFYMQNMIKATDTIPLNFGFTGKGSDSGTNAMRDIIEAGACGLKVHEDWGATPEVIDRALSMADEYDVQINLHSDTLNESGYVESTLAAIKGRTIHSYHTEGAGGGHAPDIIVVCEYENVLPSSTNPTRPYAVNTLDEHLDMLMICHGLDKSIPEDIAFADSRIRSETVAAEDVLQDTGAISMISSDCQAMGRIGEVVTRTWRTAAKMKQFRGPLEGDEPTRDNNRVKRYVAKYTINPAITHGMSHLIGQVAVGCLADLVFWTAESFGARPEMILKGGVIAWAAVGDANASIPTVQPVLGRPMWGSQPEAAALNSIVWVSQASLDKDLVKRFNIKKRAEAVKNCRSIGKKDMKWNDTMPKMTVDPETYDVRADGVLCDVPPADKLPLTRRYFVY

As to `COc1cccc(NC(=S)NC(=O)c2ccccc2)c1` [BTU5], the MIC is 32 µg/mL (≈ 112 µM) in assay [1] (setting [4]), 4 µg/mL (≈ 14 µM) in assay [1] (setting [5]), above 128 µg/mL in assay [1] (setting [6]) and 4 µg/mL (≈ 14 µM) in assay [1] (setting [7]). For the same molecule, the MICURE is recorded as 4 mg/L in assay [2] (setting [8]) and at most 0.25 mg/L in assay [2] (setting [9]). The MFC in assay [3] (setting [10]), in assay [3] (setting [11]) and in assay [3] (setting [12]) was above 128 µg/mL each time.
Regarding `O=C(NC(=S)Nc1ccc(Cl)cc1)c1ccccc1` [BTU6], the MIC in assay [1] (setting [4]) was above 128 µg/mL; in assay [1] (setting [5]) it was 1 µg/mL (≈ 3.44 µM); in assay [1] (setting [6]), above 128 µg/mL; in assay [1] (setting [7]) it was 32 µg/mL (≈ 110 µM). Moreover, the figures for the MICURE in assay [2] (setting [8]) and in assay [2] (setting [9]) were below 0.25 mg/L and at most 0.25 mg/L, respectively. Further, the MFC in assay [3] (setting [10]) is above 128 µg/mL; in assay [3] (setting [11]), above 128 µg/mL; in assay [3] (setting [12]), 128 µg/mL (≈ 440 µM).
Turning to `COc1ccccc1NC(=S)NC(=O)c1ccccc1` [BTU4], the MIC is above 128 µg/mL in assay [1] (setting [4]), 64 µg/mL (≈ 223 µM) in assay [1] (setting [5]), above 128 µg/mL in assay [1] (setting [6]) and 1 µg/mL (≈ 3.49 µM) in assay [1] (setting [7]). Moreover, the MICURE in assay [2] (setting [8]) was 32 mg/L; in assay [2] (setting [9]), at most 0.25 mg/L. Also, the MFC in assay [3] (setting [10]), in assay [3] (setting [11]) and in assay [3] (setting [12]) was above 128 µg/mL throughout.
`O=C(NC(=S)Nc1ccc(Br)cc1)c1ccccc1` [BTU8]: the MIC in assay [1] (setting [4]) was above 128 µg/mL; in assay [1] (setting [5]), 32 µg/mL (≈ 95.5 µM); in assay [1] (setting [6]), above 128 µg/mL; in assay [1] (setting [7]), 64 µg/mL (≈ 191 µM). In addition, the MICURE in assay [2] (setting [8]) is on record as below 0.25 mg/L; in assay [2] (setting [9]) it was 32 mg/L. For the same molecule, the MFC in assay [3] (setting [10]), in assay [3] (setting [11]) and in assay [3] (setting [12]) was above 128 µg/mL each time.
Regarding `O=C(NC(=S)Nc1cccc(Cl)c1)c1ccccc1` [BTU7], the MIC in assay [1] (setting [4]) was above 128 µg/mL; in assay [1] (setting [5]), 4 µg/mL (≈ 13.8 µM); in assay [1] (setting [6]), above 128 µg/mL; in assay [1] (setting [7]) it was 32 µg/mL (≈ 110 µM). The MICURE in assay [2] (setting [8]) was below 0.25 mg/L; in assay [2] (setting [9]), 2 mg/L. Besides, the values for the MFC in assay [3] (setting [10]), in assay [3] (setting [11]) and in assay [3] (setting [12]) were above 128 µg/mL, above 128 µg/mL and 64 µg/mL (≈ 220 µM), respectively.
Take `CC(C)(C)c1ccc(NC(=S)NC(=O)c2ccccc2)cc1` [BTU3]: the MIC in assay [1] (setting [4]) is 8 µg/mL (≈ 25.6 µM); in assay [1] (setting [5]) it was 1 µg/mL (≈ 3.2 µM); in assay [1] (setting [6]), 8 µg/mL (≈ 25.6 µM); in assay [1] (setting [7]), 1 µg/mL (≈ 3.2 µM). The MICURE in assay [2] (setting [8]) and in assay [2] (setting [9]) was 0.5 mg/L in each case. Moreover, the MFC in assay [3] (setting [10]) is above 128 µg/mL; in assay [3] (setting [11]), above 128 µg/mL; in assay [3] (setting [12]) it was 128 µg/mL (≈ 410 µM).
Consider `O=C(NC(=S)Nc1cccc(Br)c1)c1ccccc1` [BTU9], for which the MIC in assay [1] (setting [4]) is above 128 µg/mL; in assay [1] (setting [5]) it was 32 µg/mL (≈ 95.5 µM); in assay [1] (setting [6]) it was 32 µg/mL (≈ 95.5 µM); in assay [1] (setting [7]), 4 µg/mL (≈ 11.9 µM). For the same molecule, the MICURE was determined as 2 mg/L in assay [2] (setting [8]) and 4 mg/L in assay [2] (setting [9]). The MFC in assay [3] (setting [10]) was above 128 µg/mL; in assay [3] (setting [11]), above 128 µg/mL; in assay [3] (setting [12]) it was 32 µg/mL (≈ 95.5 µM).

A word on the MIC: it is the lowest concentration that inhibits growth of the organism. The term MFC denotes the smallest concentration meeting the test's criterion for killing the fungus.

The record behind these values is article PMC12461339, “Benzoylselenoureas: A Novel Dual-Action Inhibitor Targeting Fungal Growth and Urease Activity in Cryptococcus neoformans” (ACS Omega, 2025).
